The supplement of paper PMC11208160

Test: recombinant UMI read abundance after kanamycin selection (control-corrected) (log10(CPM+1)); higher = more efficient recombination; extreme values may be limits of the assay; sequences stand for … in AGTGCAGAGAAAATCGGCCAGTTTTCTCTGCCTGCAGTCCGCATGCCGTGGGACCCCTTGGGTTCTAACCTGTTGCCTAGATTTATGCAGCGGACTGCCTTTCTCCCAAAGTGATAAACCGG…AGGTTGGTTTCACT; site = the 11-nt donor
In short: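 In Escherichia coli, a pool of donor and donor-binding-loop pairs, each with a 12-nt UMI, was tested for the IS621 bridge recombinase. Plating was on IPTG (0.07 mM) plus kanamycin, or without selection, in two replicates. Recombinant UMIs were amplified by PCR across the donor–target junction and sequenced, and counts were reported as log10(CPM+1) after averaging and control-derived scaling.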
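Further: IS621 bridge recombinase in Escherichia coli cells against a fixed T5 target plasmid.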

Sequence | recombinant UMI read abundance (log10)
CATTATGCATGGACCGGTTTTCCCGGTAATCCGTATTTGGA (site AATTATGCTTC) | 0.0205
CATTATGCATGGACCGGTTTTCCCGGTAATCCGTATTTGGA (site CATTATGCTTC) | 1.07
CATTATGCATGGACCGGTTTTCCCGGTAATCCGTATTTGGA (site GATTATGCTTC) | 0.00887
CATTATGCATGGACCGGTTTTCCCGGTAATCCGTATTTGGA (site TATTATGCTTC) | 0.208
CATTCAGCATGGACCGGTTTTCCCGGTAATCCGTATTTGCA (site CATTCAGCTTG) | 1.05
CATTCATCATGGACCGGTTTTCCCGGTAATCCGTATTTGCT (site CATTCATCTAG) | 1.4
CATTCATCATGGACCGGTTTTCCCGGTAATCCGTATTTGCT (site CGATCATCTAG) | 0.633
CATTCGCCATGGACCGGTTTTCCCGGTAATCCGTATTTGAG (site CATTCGCCTCT) | 0.00436
CATTCGGCATGGACCGGTTTTCCCGGTAATCCGTATTTGCA (site CATTCGGCTTG) | 1.15
CATTGAGCATGGACCGGTTTTCCCGGTAATCCGTATTTGTA (site CATTGAGCTTA) | 2.06
CATTGCCCATGGACCGGTTTTCCCGGTAATCCGTATTTGAC (site CATTGCCCTGT) | 0.844
CATTTGGCATGGACCGGTTTTCCCGGTAATCCGTATTTGCT (site CATTTGGCTAG) | 0
CATTTGGCATGGACCGGTTTTCCCGGTAATCCGTATTTGCT (site CCTTTGGCTAG) | 0
CATTTGGCATGGACCGGTTTTCCCGGTAATCCGTATTTGCT (site CGTTTGGCTAG) | 0
CATTTGGCATGGACCGGTTTTCCCGGTAATCCGTATTTGCT (site CTTTTGGCTAG) | 0.00821
CATTTGGCATGGACCGGTTTTCCCGGTAATCCGTATTTGGA (site CAATTGGCTTC) | 0.313
CATTTGGCATGGACCGGTTTTCCCGGTAATCCGTATTTGGA (site CACTTGGCTTC) | 0.438
CATTTGGCATGGACCGGTTTTCCCGGTAATCCGTATTTGGA (site CAGTTGGCTTC) | 0.466
CATTTGGCATGGACCGGTTTTCCCGGTAATCCGTATTTGGA (site CATTTGGCTTC) | 0.328
CCAAAAGCATGGACCGGTTTTCCCGGTAATCCGTATTTGAT (site CCAAAAGCTAT) | 1.34
CCAAAAGCATGGACCGGTTTTCCCGGTAATCCGTATTTGAT (site CCCAAAGCTAT) | 0
CCAAAAGCATGGACCGGTTTTCCCGGTAATCCGTATTTGAT (site CCGAAAGCTAT) | 0
CCAAAAGCATGGACCGGTTTTCCCGGTAATCCGTATTTGAT (site CCTAAAGCTAT) | 0

Sequence | recombinant UMI read abundance (log10)
CCAAAGACATGGACCGGTTTTCCCGGTAATCCGTATTTGCA (site CCAAAGACTTG) | 2.26
CCAACTTCATGGACCGGTTTTCCCGGTAATCCGTATTTGAT (site CCAACTTCTAT) | 0
CCAATATCATGGACCGGTTTTCCCGGTAATCCGTATTTGAG (site CCAATATCTCT) | 1.21
CCAATCACATGGACCGGTTTTCCCGGTAATCCGTATTTGGG (site CCAATCACTCC) | 0.336
CCAATTGCATGGACCGGTTTTCCCGGTAATCCGTATTTGAG (site CCAATTGCTCT) | 0.865
CCACAGTCATGGACCGGTTTTCCCGGTAATCCGTATTTGTG (site CCACAGTCTCA) | 1.93
CCACATCCATGGACCGGTTTTCCCGGTAATCCGTATTTGAC (site ACACATCCTGT) | 0
CCACATCCATGGACCGGTTTTCCCGGTAATCCGTATTTGAC (site CCACATCCTGT) | 0
CCACATCCATGGACCGGTTTTCCCGGTAATCCGTATTTGAC (site GCACATCCTGT) | 0
CCACATCCATGGACCGGTTTTCCCGGTAATCCGTATTTGAC (site TCACATCCTGT) | 0
CCACGTGCATGGACCGGTTTTCCCGGTAATCCGTATTTGAT (site CCAAGTGCTAT) | 0.0041
CCACGTGCATGGACCGGTTTTCCCGGTAATCCGTATTTGAT (site CCACGTGCTAT) | 0.871
CCACGTGCATGGACCGGTTTTCCCGGTAATCCGTATTTGAT (site CCAGGTGCTAT) | 0.0128
CCACGTGCATGGACCGGTTTTCCCGGTAATCCGTATTTGAT (site CCATGTGCTAT) | 0.0143
CCAGATGCATGGACCGGTTTTCCCGGTAATCCGTATTTGAT (site CCAGATGCTAT) | 1.26
CCAGATGCATGGACCGGTTTTCCCGGTAATCCGTATTTGAT (site CCAGCTGCTAT) | 0.00516
CCAGATGCATGGACCGGTTTTCCCGGTAATCCGTATTTGAT (site CCAGGTGCTAT) | 0.261
CCAGATGCATGGACCGGTTTTCCCGGTAATCCGTATTTGAT (site CCAGTTGCTAT) | 0.00471
CCAGCCCCATGGACCGGTTTTCCCGGTAATCCGTATTTGCC (site CCAGCCCCTGG) | 0.451
CCAGGATCATGGACCGGTTTTCCCGGTAATCCGTATTTGCA (site ACAGTATCTTG) | 0
CCAGGATCATGGACCGGTTTTCCCGGTAATCCGTATTTGCA (site CCAGGATCTTG) | 0.424
CCAGGTGCATGGACCGGTTTTCCCGGTAATCCGTATTTGAT (site ACAGGTGCTAT) | 0.0184
CCAGGTGCATGGACCGGTTTTCCCGGTAATCCGTATTTGAT (site CAAGGTGCTAT) | 0.441

Sequence | recombinant UMI read abundance (log10)
CCAGGTGCATGGACCGGTTTTCCCGGTAATCCGTATTTGAT (site CCAAGTGCTAT) | 1.24
CCAGGTGCATGGACCGGTTTTCCCGGTAATCCGTATTTGAT (site CCACGTGCTAT) | 0.497
CCAGGTGCATGGACCGGTTTTCCCGGTAATCCGTATTTGAT (site CCAGATGCTAT) | 1.74
CCAGGTGCATGGACCGGTTTTCCCGGTAATCCGTATTTGAT (site CCAGCTGCTAT) | 0.00488
CCAGGTGCATGGACCGGTTTTCCCGGTAATCCGTATTTGAT (site CCAGGAGCTAT) | 0.984
CCAGGTGCATGGACCGGTTTTCCCGGTAATCCGTATTTGAT (site CCAGGCGCTAT) | 0.436
CCAGGTGCATGGACCGGTTTTCCCGGTAATCCGTATTTGAT (site CCAGGGGCTAT) | 1.32
CCAGGTGCATGGACCGGTTTTCCCGGTAATCCGTATTTGAT (site CCAGGTACTAT) | 0.835
CCAGGTGCATGGACCGGTTTTCCCGGTAATCCGTATTTGAT (site CCAGGTCCTAT) | 0
CCAGGTGCATGGACCGGTTTTCCCGGTAATCCGTATTTGAT (site CCAGGTGCTAA) | 0.0192
CCAGGTGCATGGACCGGTTTTCCCGGTAATCCGTATTTGAT (site CCAGGTGCTAC) | 0.227
CCAGGTGCATGGACCGGTTTTCCCGGTAATCCGTATTTGAT (site CCAGGTGCTAG) | 0
CCAGGTGCATGGACCGGTTTTCCCGGTAATCCGTATTTGAT (site CCAGGTGCTAT) | 1.32
CCAGGTGCATGGACCGGTTTTCCCGGTAATCCGTATTTGAT (site CCAGGTGCTCT) | 0.00956
CCAGGTGCATGGACCGGTTTTCCCGGTAATCCGTATTTGAT (site CCAGGTGCTGT) | 0
CCAGGTGCATGGACCGGTTTTCCCGGTAATCCGTATTTGAT (site CCAGGTGCTTT) | 0.206
CCAGGTGCATGGACCGGTTTTCCCGGTAATCCGTATTTGAT (site CCAGGTTCTAT) | 0.204
CCAGGTGCATGGACCGGTTTTCCCGGTAATCCGTATTTGAT (site CCAGTTGCTAT) | 0.00491
CCAGGTGCATGGACCGGTTTTCCCGGTAATCCGTATTTGAT (site CCATGTGCTAT) | 0.018
CCAGGTGCATGGACCGGTTTTCCCGGTAATCCGTATTTGAT (site CCCGGTGCTAT) | 0.433
CCAGGTGCATGGACCGGTTTTCCCGGTAATCCGTATTTGAT (site CCGGGTGCTAT) | 1.47
CCAGGTGCATGGACCGGTTTTCCCGGTAATCCGTATTTGAT (site CCTGGTGCTAT) | 0
